Experimental data from US20110136768A1 (THE GENERAL HOSPITAL CORPORATION, priority 2008, published 2011).
Structures can show the parent of a compound that is named as a salt.

How the values were obtained:
[1] = tested on: patients with NSF; conditions: two patients; cited from earlier work
[2] = tested on: patients with NSF; test: Skin involvement by modified Rodnan skin score (mRSS) in treated NSF patients; type: in vivo, human
Protocol: (§1) Two patients diagnosed with NSF that was associated with gadolinium exposure were assessed and treated with orally administered imatinib mesylate over an extended period of time. Their progress was assessed as were any side effects of the treatment.
They were offered treatment with imatinib mesylate. […] Shortly thereafter, […] PD catheter stopped functioning and they began to undergo HD.
To determine whether a higher dose of IM might yield further improvement in their skin changes, their daily dose was increased from 400 mg to 600 mg at the end of January 2007. Because of a hospitalization in February 2007, for evaluation and treatment of chronic gastrointestinal bleeding, they stopped taking IM for 2 weeks. They resumed taking daily oral IM 600 mg, one week later, but they again stopped taking it after 6 days, when they underwent elective surgical repair of an abdominal hernia. They once again resumed taking oral IM 400 mg daily in May 2007. However, because of difficulty controlling their INR, they discontinued IM two weeks later. Off of IM, their Coumadin anticoagulation has been managed more easily.
Skin involvement was assessed using the modified version of the Rodnan skin score (mRSS). The same examiner evaluated each patient at each visit. Seventeen skin sites were evaluated: the face, upper arms, […], dorsum of the hands, fingers, chest, abdomen, thighs, […], and feet. Each site was graded: 0=normal skin, 1=thickened skin, 2=thickened and unable to pinch, or 3=thickened and unable to move. The maximum total score is 51.

[3] = tested on: patients with NSF; test: Skin biopsy histology before and after IM (hematoxylin & eosin, type I procollagen staining); type: in vivo, human
Text: FIG. 2 (A and B) are photographs of skin biopsies from Patient 1 before (FIG. 2A) and after 15 weeks (FIG. 2B) of treatment with IM, at similar magnification and under equivalent lighting. […] (hematoxylin & eosin staining, 12.5× total magnification). The grey line in each panel identifies the level of the eccrine ducts, structures that occur at a relatively uniform depth in a particular region of the body.
FIG. 3 (A and B) are photographs of skin biopsies from Patient 1 before (FIG. 3A) and after 15 weeks (FIG. 3B) of treatment with IM, at similar magnification and under equivalent lighting. […] (type I procollagen immunohistochemical staining, 12.5× magnification) The grey line in each panel identifies the level of the eccrine ducts.
Skin biopsies performed both before and after initial dosing of Patient 1 with IM were compared. Both specimens were obtained from the same anatomic area, with the second biopsy taken immediately adjacent to the resolved scar from the prior procedure, but each biopsy had been performed using different technique (The first biopsy was an excisional biopsy, the second was a punch biopsy). […] Furthermore, in the specimen obtained after IM treatment, fewer type I procollagen^+ cells were present in the upper dermis (FIG. 3B). The second biopsy contained 124 ppm (μg/g, dry weight) of gadolinium, essentially unchanged from that of the pretreatment biopsy (High et al.: Gadolinium is quantifiable within the tissue of patients with nephrogenic systemic fibrosis, J Am Acad Dermatol 2007).

[4] = tested on: patients with NSF; test: Adverse effects in the two treated NSF patients; type: in vivo, human; conditions: both patients
Protocol: as §1
Patient 1 developed gastrointestinal upset that resolved when corticosteroid replacement with 7.5 mg/day oral prednisone was initiated to treat adrenal insufficiency 17 weeks after re-initiation of IM, despite continuation of IM.

[5] = tested on: patients with NSF; test: Knee joint flexion contracture measured with a goniometer in treated NSF patients; type: in vivo, human
Protocol: as §1
Loss of knee joint extension (flexion contracture) was assessed by measuring maximal passive knee extension, with the patient in a supine position, using a goniometer. The center of the goniometer was placed at the lateral femoral condyle, with the proximal arm positioned along the longitudinal axis of the femur and the distal arm aligned with the long axis of the tibia. Measurements were rounded to the nearest multiple of 5 degrees. Although flexion contractures appeared symmetric in both patients, the knee with the greater flexion contracture at baseline was assessed for change at subsequent visit.

Row | Structure (SMILES) | skin thickening and joint mobility [1] | mRSS ([2]; Patient 1, after oral IM 400 mg daily over 15 weeks) | mRSS ([2]; Patient 1, after subsequent 9 weeks without IM) | mRSS ([2]; Patient 1, baseline before oral IM 400 mg daily, maximum total score 51) | mRSS ([2]; Patient 1, within 5 weeks of resuming oral IM 400 mg daily (from 33)) | mRSS ([2]; Patient 2, baseline before oral IM 400 mg daily) | mRSS ([2]; Patient 2, while taking oral IM 400 mg daily) | mRSS ([2]; Patient 2, within 5 weeks of stopping IM) | staining for type I procollagen in skin biopsy ([3]; Patient 1, after 15 weeks of IM versus before) | fibrosis in skin biopsy ([3]; Patient 1, after 15 weeks of IM versus before, hematoxylin & eosin) | type I procollagen+ cells in the upper dermis ([3]; Patient 1, after IM treatment versus before) | congestive heart failure [4] | adverse effect related to IM ([4]; corrected by dialysis treatment) | knee joint flexion contractures ([5]; Patient 1, off IM for 9 weeks, both knees) [°] | knee joint flexion contractures ([5]; Patient 1, week 6 of IM, with physical therapy) [°] | knee joint flexion contractures ([5]; Patient 1, week 15 of IM, with physical therapy) [°] | knee joint flexion contractures ([5]; Patient 2, after discontinuing IM, none when they began IM)
1 | CC(=O)CCCCn1c(=O)c2c(ncn2C)n(C)c1=O [pentoxyphyline] | Decreased skin thickening and improved joint mobility | – | – | – | – | – | – | – | – | – | – | – | – | – | – | – | –
2 | Cc1ccc(NC(=O)c2ccc(CN3CCN(C)CC3)cc2)cc1Nc1nccc(-c2cccnc2)n1 [imatinib mesylate] | – | 16 | 33 | 42 | 10 | 12 | 2 | 15 | less staining for type I procollagen | less fibrosis | fewer | Neither patient developed congestive heart failure | fluid retention | 25 | 25 | 10 | knee joint flexion contractures developed that gradually progressed over time
